pIC50: −log10 of the molar value.
target: Protein arginine N-methyltransferase 1 (Homo sapiens, UniProt Q99873); experiment: Inhibition of GST-tagged PRMT1 by methylation assay
Sequence (Q99873 whole entry): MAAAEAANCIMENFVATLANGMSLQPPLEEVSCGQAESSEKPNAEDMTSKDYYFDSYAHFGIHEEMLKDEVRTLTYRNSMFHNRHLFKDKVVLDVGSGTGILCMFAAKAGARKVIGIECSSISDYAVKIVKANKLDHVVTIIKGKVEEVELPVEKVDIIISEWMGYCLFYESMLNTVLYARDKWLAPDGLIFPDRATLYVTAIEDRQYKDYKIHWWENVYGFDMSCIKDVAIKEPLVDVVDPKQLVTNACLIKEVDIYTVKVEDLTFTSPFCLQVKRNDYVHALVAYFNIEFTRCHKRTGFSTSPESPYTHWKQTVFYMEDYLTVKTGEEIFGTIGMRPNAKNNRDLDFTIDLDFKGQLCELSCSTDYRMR

| pIC50 | SMILES |
| --- | --- |
| < 4.60 | C[C@H](N)C(=O)NCc1cccc(-n2nc(C(F)(F)F)cc2C(=O)NCc2ccccc2)c1 |

target: T1, Histone-arginine methyltransferase CARM1 (Homo sapiens, UniProt Q86X55); experiment: Inhibition of human GST-tagged CARM1 by methylation assay
T1 sequence (Q86X55 whole entry): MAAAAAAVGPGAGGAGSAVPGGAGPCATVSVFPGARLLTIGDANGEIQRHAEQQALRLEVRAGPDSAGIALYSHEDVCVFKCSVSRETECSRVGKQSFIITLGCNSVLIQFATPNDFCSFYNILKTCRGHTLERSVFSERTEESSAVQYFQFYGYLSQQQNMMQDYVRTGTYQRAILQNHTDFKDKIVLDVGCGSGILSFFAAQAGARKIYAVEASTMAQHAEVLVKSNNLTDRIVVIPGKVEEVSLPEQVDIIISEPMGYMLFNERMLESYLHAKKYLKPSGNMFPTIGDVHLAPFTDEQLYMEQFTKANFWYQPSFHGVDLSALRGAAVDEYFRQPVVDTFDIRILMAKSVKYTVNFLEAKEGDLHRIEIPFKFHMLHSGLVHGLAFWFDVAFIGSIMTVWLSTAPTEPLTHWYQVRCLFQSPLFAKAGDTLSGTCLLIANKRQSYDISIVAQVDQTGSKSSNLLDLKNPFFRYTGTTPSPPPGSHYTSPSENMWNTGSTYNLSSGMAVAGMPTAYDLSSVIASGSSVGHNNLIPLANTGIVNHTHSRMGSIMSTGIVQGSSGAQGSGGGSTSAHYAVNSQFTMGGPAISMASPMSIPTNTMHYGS

| SMILES | pIC50 |
| --- | --- |
| C[C@H](N)C(=O)NCc1ccccc1-n1nc(C(F)(F)F)cc1C(=O)NCc1ccccc1 | < 4.30 |
| C[C@H](N)C(=O)NCc1cccc(-n2nc(C(F)(F)F)cc2C(=O)NC2CCCCC2)c1 | 5.37 |
| CS(=O)(=O)c1ccccc1-c1ccc(NC(=O)c2cc(C(F)(F)F)nn2-c2cccc(CNC(=O)CCN)c2)c(F)c1 | 4.77 |
| C[C@@H](N)C(=O)NCc1cccc(-n2nc(C(F)(F)F)cc2C(=O)Nc2ccc(-c3ccccc3S(C)(=O)=O)cc2F)c1 | 4.70 |
| CS(=O)(=O)c1ccccc1-c1ccc(NC(=O)c2cc(C(F)(F)F)nn2-c2cccc(CNC(=O)C(N)C(F)(F)F)c2)c(F)c1 (centres undefined) | < 4.52 |
| CNCC(=O)NCc1cccc(-n2nc(C(F)(F)F)cc2C(=O)Nc2ccc(-c3ccccc3S(C)(=O)=O)cc2F)c1 | < 4.52 |
| C[C@H](N)C(=O)NCc1ccc(-n2nc(C(F)(F)F)cc2C(=O)NCc2ccccc2)cc1 | < 4.30 |
| C[C@H](N)C(=O)NCc1cccc(-n2nc(C(F)(F)F)cc2C(=O)Nc2ccc(-c3ccccc3S(C)(=O)=O)cc2F)c1 | 6.80 |
| C[C@H](N)C(=O)NCc1cccc(-n2nc(C(F)(F)F)cc2NC(=O)OCc2ccccc2)c1 | 6.22 |
| CC(C)(N)C(=O)NCc1cccc(-n2nc(C(F)(F)F)cc2C(=O)Nc2ccc(-c3ccccc3S(C)(=O)=O)cc2F)c1 | < 4.52 |
| C[C@H](N)C(=O)NCc1cccc(-n2nc(C(F)(F)F)cc2C(=O)N(C)Cc2ccccc2)c1 | 5.47 |

Next, values leading:

| pIC50 | SMILES |
| --- | --- |
| 6.74 | C[C@H](N)C(=O)NCc1cccc(-n2nc(C(F)(F)F)cc2C(=O)N[C@H](C)c2ccccc2)c1 |
| 5.11 | NCC(=O)NCc1cccc(-n2nc(C(F)(F)F)cc2C(=O)Nc2ccccc2)c1 |
| 5.85 | NCC(=O)NCc1cccc(-n2nc(C(F)(F)F)cc2C(=O)Nc2ccc(-c3ccccc3)cc2)c1 |
| 4.97 | CNC(=O)c1cc(C(F)(F)F)nn1-c1cccc(CNC(=O)CN)c1 |
| 5.88 | C[C@H](N)C(=O)NCc1cccc(-n2nc(C(F)(F)F)cc2C(=O)Nc2ccccc2)c1 |
| 4.53 | CN(C)C(=O)c1cc(C(F)(F)F)nn1-c1cccc(CNC(=O)CN)c1 |
| 5.74 | CS(=O)(=O)c1ccccc1-c1ccc(NC(=O)c2cc(C(F)(F)F)nn2-c2cccc(CNC(=O)CN)c2)cc1 |
| 5.96 | C[C@H](N)C(=O)NCc1cccc(-n2nc(C(F)(F)F)cc2C(=O)NCCc2ccccc2)c1 |
| 7.10 | C[C@H](N)C(=O)NCc1cccc(-n2nc(C(F)(F)F)cc2C(=O)NCc2ccccc2)c1 |
| 5.15 | C[C@H](N)C(=O)NCc1cccc(-n2nc(C(F)(F)F)cc2C(=O)N[C@@H](C)c2ccccc2)c1 |
| 6.64 | CS(=O)(=O)c1cccc(NC(=O)c2cc(C(F)(F)F)nn2-c2cccc(CNC(=O)CN)c2)c1 |

target: Protein arginine N-methyltransferase 3 (Homo sapiens, UniProt O60678); experiment: Inhibition of GST-tagged PRMT3 by methylation assay
Sequence (O60678 whole entry): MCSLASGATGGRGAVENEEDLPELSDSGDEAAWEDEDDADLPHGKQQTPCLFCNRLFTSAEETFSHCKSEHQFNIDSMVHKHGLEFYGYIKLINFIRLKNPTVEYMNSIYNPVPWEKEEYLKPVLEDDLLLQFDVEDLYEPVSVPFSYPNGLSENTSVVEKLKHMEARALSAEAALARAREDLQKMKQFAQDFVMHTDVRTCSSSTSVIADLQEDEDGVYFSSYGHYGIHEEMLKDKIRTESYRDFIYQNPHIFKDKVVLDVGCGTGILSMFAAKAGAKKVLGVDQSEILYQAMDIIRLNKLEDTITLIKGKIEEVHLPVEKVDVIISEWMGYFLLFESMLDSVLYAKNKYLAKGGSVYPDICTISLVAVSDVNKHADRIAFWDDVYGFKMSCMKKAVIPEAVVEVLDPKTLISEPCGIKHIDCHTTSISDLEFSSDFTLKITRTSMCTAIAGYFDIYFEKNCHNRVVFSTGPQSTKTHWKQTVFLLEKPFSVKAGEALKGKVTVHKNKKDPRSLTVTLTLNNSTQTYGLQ

| pIC50 | SMILES |
| --- | --- |
| < 4.60 | C[C@H](N)C(=O)NCc1cccc(-n2nc(C(F)(F)F)cc2C(=O)NCc2ccccc2)c1 |

From ChEMBL document CHEMBL1155844, “Pyrazole inhibitors of coactivator associated arginine methyltransferase 1 (CARM1)” (Bioorg Med Chem Lett, 2008)
